Measurements reported in patent publication US20110015162A1, “15,16-Methylene-17-hydroxy-19-nor-21-carboxylic acid-steroid Y-lactone derivative, use thereof and medicinal products containing the derivative” (Bayer Schering Pharma Aktiengesellschaft, priority 2007, published 2011).
Like-named read-outs stand apart in the source and are kept apart here.

Target: T1, fusion protein from the PR-ligand-binding domain and a Gal4-transactivation domain (Homo sapiens, UniProt P06401)
T1 construct: expressed in transfected cells; host or cells: CHO K1 cells, stably transfected
T1 sequence (P06401 679-913 limits assumed): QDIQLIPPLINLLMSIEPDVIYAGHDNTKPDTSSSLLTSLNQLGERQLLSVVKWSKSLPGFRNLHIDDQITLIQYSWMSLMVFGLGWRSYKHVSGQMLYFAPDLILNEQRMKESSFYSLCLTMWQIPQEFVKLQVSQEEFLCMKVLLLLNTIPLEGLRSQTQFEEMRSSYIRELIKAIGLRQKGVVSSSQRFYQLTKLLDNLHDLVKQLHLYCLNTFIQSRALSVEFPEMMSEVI
T1 sequence (P04386 1-147 partner limits assumed): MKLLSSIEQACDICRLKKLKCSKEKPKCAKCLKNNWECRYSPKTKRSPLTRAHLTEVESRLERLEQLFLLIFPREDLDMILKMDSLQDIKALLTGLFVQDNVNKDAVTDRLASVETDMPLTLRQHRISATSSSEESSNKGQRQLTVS
Test: Progestational action by transactivation test (CHO K1 reporter cells)
Format: cell-based
Details: for Emax: read-out: Progesterone receptor Agonism efficacy
Description: 4. Determination of Progestational Action by Means of Transactivation Tests:
The culture medium used for culture of the cells used for the assay was DMEM (Dulbecco's Modified Eagle Medium: […] glucose; PAA, #E15-009) with 10% FCS (Biochrom, S0115, batch #615B), 4 mM L-glutamine, 1% penicillin/streptomycin, 1 mg/ml G418 and 0.5 μg/ml puromycin.
Reporter cell lines (CHO K1 cells stably transfected with a fusion protein from the PR-ligand-binding domain and a Gal4-transactivation domain and a reporter construct, which contained luciferase under the control of a Gal4-responsive promoter) were seeded at a density of 4×10^4 cells per well in white, opaque tissue culture plates each with 96 wells (PerkinElmer, #P12-106-017) and kept in culture medium with 3% DCC-FCS (serum treated with activated charcoal to remove interfering components contained in the serum). The test compounds were added eight hours later, and the cells were incubated with the compounds for 16 hours. The tests were carried out in triplicate. At the end of incubation the medium containing the effector was removed and replaced with lysis buffer. After luciferase assay substrate (Promega, #E1501) had been added, the 96-well plates were then put in a microplate luminometer (Pherastar, BMG Labtech), and the luminescence was measured. The IC50 values were evaluated using software for calculating dose-effect relations.

[1] = CHO K1 reporter cells, 16 hours incubation
[2] = CHO K1 reporter cells, 16 hours incubation, read-out: Progesterone receptor Agonism EC50

| Compound | EC50 | Emax (CHO-K1, 16 h) | Emax [1] | Progesterone receptor Agonism EC50 [1] | EC50 [2] |
| --- | --- | --- | --- | --- | --- |
| CC[C@]12CC[C@H]3[C@@H]([C@H]4C[C@H]4C4=CC(=O)CC[C@@H]43)[C@@H]1[C@@H]1C[C@@H]1[C@@]21C=CC(=O)O1 [Example 1, 6β,7β;15β,16β-Bismethylene-17β-hydroxy-18-methyl-19-nor-17α-pregna-4,20(Z)-dien-3-one-21-carboxylic acid γ-lactone] | 1.5 nM | 62.8% |  |  |  |
| CC[C@]12CC[C@H]3[C@@H](C=CC4=CC(=O)CC[C@@H]43)[C@@H]1[C@@H]1C[C@@H]1[C@@]21C=CC(=O)O1 [Example 3, 17β-Hydroxy-18-methyl-15β,16β-methylene-19-nor-17α-pregna-4,6,20(Z)-trien-3-one-21-carboxylic acid γ-lactone] | 1.4 nM | 34.2% |  |  |  |
| CC[C@]12CC[C@H]3[C@H]([C@@H]1[C@@H]1C[C@@H]1[C@@]21C=CC(=O)O1)[C@H](C)CC1=CC(=O)CC[C@@H]13 [Example 4A, 7α,18-Bismethyl-17β-hydroxy-15β,16β-methylene-19-nor-17α-pregna-4,20(Z)-dien-3-one-21-carboxylic acid γ-lactone] | 39 nM | 71.1% |  |  |  |
| CC[C@@H]1CC2=CC(=O)CC[C@@H]2[C@H]2CC[C@@]3(CC)[C@@H]([C@@H]4C[C@@H]4[C@@]34C=CC(=O)O4)[C@H]12 [Example 5A, 17β-Hydroxy-7α-ethyl-18-methyl-15β,16β-methylene-19-nor-17α-pregna-4,20(Z)-dien-3-one-21-carboxylic acid γ-lactone] | 99 nM | 35.7% |  |  |  |
| C=C[C@@H]1CC2=CC(=O)CC[C@@H]2[C@H]2CC[C@@]3(CC)[C@@H]([C@@H]4C[C@@H]4[C@@]34C=CC(=O)O4)[C@@H]21 [Example 6A, 17β-Hydroxy-7α-vinyl-18-methyl-15β,16β-methylene-19-nor-17α-pregna-4,20(Z)-dien-3-one-21-carboxylic acid γ-lactone] | 140 nM | 35.2% |  |  |  |
| CC[C@]12CC[C@H]3[C@H]([C@@H]1[C@@H]1C[C@@H]1[C@@]21C=CC(=O)O1)[C@H](C1CC1)CC1=CC(=O)CC[C@@H]13 [Example 7A, 17β-Hydroxy-7α-cyclopropyl-18-methyl-15β,16β-methylene-19-nor-17α-pregna-4,20(Z)-dien-3-one-21-carboxylic acid γ-lactone] |  | 5% |  |  |  |
| CC[C@]12CC[C@H]3[C@@H]([C@H]4C[C@H]4C4=C(Cl)C(=O)CC[C@@H]43)[C@@H]1[C@@H]1C[C@@H]1[C@@]21C=CC(=O)O1 [Example 8, 6β,7β;15β,16β-Bismethylene-4-chloro-17β-hydroxy-18-methyl-19-nor-17α-pregna-4,20(Z)-dien-3-one-21-carboxylic acid γ-lactone] |  |  | 9.8% |  |  |
| CC[C@]12CC[C@H]3[C@@H](CCC4=CC(=O)CC[C@@H]43)[C@@H]1[C@@H]1C[C@@H]1[C@@]21C=CC(=O)O1 [Example 9, 17β-Hydroxy-18-methyl-15β,16β-methylene-19-nor-17α-pregna-4,20(Z) dien-3-one-21-carboxylic acid γ-lactone] | 1.6 nM | 56% |  |  |  |
| CC[C@]12CC[C@H]3[C@@H](C[C@@H](CO)C4=CC(=O)CC[C@@H]43)[C@@H]1[C@@H]1C[C@@H]1[C@@]21C=CC(=O)O1 [Example 10, 17β-Hydroxy-6β-hydroxymethylene-18-methyl-15β,16β-methylene-19-nor-17α-pregna-4,20(Z)-dien-3-one-21-carboxylic acid γ-lactone] |  |  |  | inactive |  |
| C[C@]12CC[C@H]3[C@@H](CCC4=CC(=O)CC[C@@H]43)[C@@H]1[C@H]1C[C@H]1[C@@]21C=CC(=O)O1 [Example 12, 17β-Hydroxy-15α,16α-methylene-19-nor-17α-pregna-4,20(Z)-dien-3-one-21-carboxylic acid γ-lactone] | 0.4 nM | 75.5% |  |  |  |
| C[C@]12CC[C@H]3[C@@H](C=CC4=CC(=O)CC[C@@H]43)[C@@H]1[C@H]1C[C@H]1[C@@]21C=CC(=O)O1 [Example 13, 17β-Hydroxy-15α,16α-methylene-19-nor-17α-pregna-4,6,20(Z)-trien-3-one-21-carboxylic acid γ-lactone] |  |  | 37.1% |  | 150 nM |
| C[C@@H]1CC2=CC(=O)CC[C@@H]2[C@H]2CC[C@@]3(C)[C@@H]([C@H]4C[C@H]4[C@@]34C=CC(=O)O4)[C@@H]21 [Example 14A, 17β-Hydroxy-7α-methyl-15α,16α-methylene-19-nor-17α-pregna-4,20(Z)-dien-3-one-21-carboxylic acid γ-lactone] | 16 nM | 86.3% |  |  |  |
| CC[C@@H]1CC2=CC(=O)CC[C@@H]2[C@H]2CC[C@@]3(C)[C@@H]([C@H]4C[C@H]4[C@@]34C=CC(=O)O4)[C@H]12 [Example 15A, 17β-Hydroxy-7α-ethyl-15α,16α-methylene-19-nor-17α-pregna-4,20(Z)-dien-3-one-21-carboxylic acid γ-lactone] | 92 nM | 39.5% |  |  |  |
| C=C[C@@H]1CC2=CC(=O)CC[C@@H]2[C@H]2CC[C@@]3(C)[C@@H]([C@H]4C[C@H]4[C@@]34C=CC(=O)O4)[C@@H]21 [Example 16A, 17β-Hydroxy-7α-vinyl-15α,16α-methylene-19-nor-17α-pregna-4;20(Z)-dien-3-one-21-carboxylic acid γ-lactone] | 140 nM | 59.3% |  |  |  |
| C[C@]12CC[C@H]3[C@H]([C@@H]1[C@H]1C[C@H]1[C@@]21C=CC(=O)O1)[C@H](C1CC1)CC1=CC(=O)CC[C@@H]13 [Example 17A, 17β-Hydroxy-7α-cyclopropyl-15α,16α-methylene-19-nor-17α-pregna-4,20(Z)-dien-3-one-21-carboxylic acid γ-lactone] | 970 nM | 71.8% |  |  |  |
| C[C@]12CC[C@H]3[C@@H](CCC4=C(Cl)C(=O)CC[C@@H]43)[C@@H]1[C@H]1C[C@H]1[C@@]21C=CC(=O)O1 [Example 18, 4-Chloro-17β-hydroxy-15α,16α-methylene-19-nor-17α-pregna-4,20(Z)-dien-3-one-21-carboxylic acid γ-lactone] | 810 nM | 25.7% |  |  |  |
| C[C@]12CC[C@H]3[C@@H](C[C@@H](CO)C4=CC(=O)CC[C@@H]43)[C@@H]1[C@@H]1C[C@@H]1[C@@]21C=CC(=O)O1 [Example 21, 17β-Hydroxy-6β-hydroxymethylene-15β,16β-methylene-19-nor-17α-pregna-4,20(Z)-dien-3-one-21-carboxylic acid γ-lactone] |  |  | 21% |  | 780 nM |
| C[C@]12CC[C@H]3[C@@H](CC4(CC4)C4=CC(=O)CC[C@@H]43)[C@@H]1[C@@H]1C[C@@H]1[C@@]21C=CC(=O)O1 [Example 22, 6,6-(1,2-Ethanediyl)-17β-hydroxy-15β,16β-methylene-19-nor-17α-pregna-4,20(Z)dien-3-one-21-carboxylic acid γ-lactone] | 1.1 nM | 126% |  |  |  |
| C[C@@H]1CC2=CC(=O)CC[C@@H]2[C@H]2CC[C@@]3(C)[C@@H]([C@@H]4C[C@@H]4[C@@]34C=CC(=O)O4)[C@@H]21 [Example 23A, 17β-Hydroxy-7α-methyl-15β,16β-methylene-19-nor-17α-pregna-4,20(2)-dien-3-one-21-carboxylic acid γ-lactone] | 21 nM | 140% |  |  |  |
| CC[C@@H]1CC2=CC(=O)CC[C@@H]2[C@H]2CC[C@@]3(C)[C@@H]([C@@H]4C[C@@H]4[C@@]34C=CC(=O)O4)[C@H]12 [Example 24A, 7α-Ethyl-17β-hydroxy-15β,16β-methylene-19-nor-17α-pregna-4,20(Z)-dien-3-one-21-carboxylic acid γ-lactone] | 140 nM | 42.7% |  |  |  |
| C=C[C@@H]1CC2=CC(=O)CC[C@@H]2[C@H]2CC[C@@]3(C)[C@@H]([C@@H]4C[C@@H]4[C@@]34C=CC(=O)O4)[C@@H]21 [Example 25A, 17β-Hydroxy-15β,16β-methylene-7α-vinyl-19-nor-17α-pregna-4,20(Z)-dien-3-one-21-carboxylic acid γ-lactone] | 560 nM | 46.5% |  |  |  |
| C[C@]12CC[C@H]3[C@@H](CCC4=C(Cl)C(=O)CC[C@@H]43)[C@@H]1[C@@H]1C[C@@H]1[C@@]21C=CC(=O)O1 [Example 27, 4-Chloro-17β-hydroxy-15β,16β-methylene-19-nor-17α-pregna-4,20(Z)-dien-3-one-21-carboxylic acid γ-lactone] | 330 nM | 49.6% |  |  |  |
